Numbers after ± are expanded uncertainties.
Conditions: 298.15 K; 101.33 kPa; Liquid

Row | Compound | mass density [kg/m3]
1 | CCCCCC[n+]1ccc2ccccc2c1.N#C[S-] [2-hexylisoquinolinium thiocyanate] | 1081.34 ± 1.2
2 | CCCCCCCC[n+]1ccc2ccccc2c1.N#C[S-] [2-octylisoquinolinium thiocyanate] | 1061.69 ± 1.2

Source: the NIST ThermoML archive (doi:10.1016/j.fluid.2015.05.003)
